Tests used:
PBMC = settings: 12.5 µM

## CC[C@H](C)[C@H](N)C(=O)N[C@@H](CC(N)=O)C(=O)N[C@@H](CC(C)C)C(=O)N[C@@H](CCCCN)C(=O)N[C@@H](C)C(=O)N[C@@H](CC(C)C)C(=O)N[C@@H](CCC(=O)O)C(=O)N[C@@H](C)C(=O)N[C@@H](CC(C)C)C(=O)N[C@@H](C)C(=O)N[C@@H](CCCCN)C(=O)N[C@@H](CCCCN)C(=O)N[C@H](C(=O)N[C@@H](CC(C)C)C(N)=O)[C@@H](C)CC [E7]
PBMC
  Average (percentage cell inhibition), Mastoparan PBMC: 6.221%
MDA-MB-231 cells
  Average (percentage cell inhibition), Dmastoparan MDA-MB231 12.5uM: 27.5958%

## CC[C@H](C)[C@H](NC(=O)[C@H](CCCCN)NC(=O)[C@H](CCCCN)NC(=O)[C@H](C)NC(=O)[C@H](CC(C)C)NC(=O)[C@H](C)NC(=O)[C@H](C)NC(=O)[C@H](CC(C)C)NC(=O)[C@H](C)NC(=O)[C@H](CCCCN)NC(=O)[C@H](CC(C)C)NC(=O)[C@H](CC(N)=O)NC(=O)[C@H](C)N)C(=O)N[C@@H](CC(C)C)C(N)=O [A1]
PBMC
  Average (percentage cell inhibition), Mastoparan PBMC: 5.463%
MDA-MB-231 cells
  Average (percentage cell inhibition), Dmastoparan MDA-MB231 12.5uM: 30.2333%

## CC[C@H](C)[C@H](N)C(=O)N[C@@H](CC(N)=O)C(=O)N[C@@H](CC(C)C)C(=O)N[C@@H](CCCCN)C(=O)N[C@@H](C)C(=O)N[C@@H](CC(C)C)C(=O)N[C@@H](C)C(=O)N[C@@H](C)C(=O)N[C@@H](CC(C)C)C(=O)N[C@@H](C)C(=O)N[C@@H](CCCCN)C(=O)N[C@@H](CCCCN)C(=O)N[C@@H](CCCNC(=N)N)C(=O)N[C@@H](CC(C)C)C(N)=O [R13]
PBMC
  Average (percentage cell inhibition), Mastoparan PBMC: -5.395%
MDA-MB-231 cells
  Average (percentage cell inhibition), Dmastoparan MDA-MB231 12.5uM: 13.2975%

## CC[C@H](C)[C@H](N)C(=O)NCC(=O)N[C@@H](CC(C)C)C(=O)N[C@@H](CCCCN)C(=O)N[C@@H](C)C(=O)N[C@@H](CC(C)C)C(=O)N[C@@H](C)C(=O)N[C@@H](C)C(=O)N[C@@H](CC(C)C)C(=O)N[C@@H](C)C(=O)N[C@@H](CCCCN)C(=O)N[C@@H](CCCCN)C(=O)N[C@H](C(=O)N[C@@H](CC(C)C)C(N)=O)[C@@H](C)CC [G2]
PBMC
  Average (percentage cell inhibition), Mastoparan PBMC: 15.6884%
MDA-MB-231 cells
  Average (percentage cell inhibition), Dmastoparan MDA-MB231 12.5uM: 71.0378%

## CC[C@H](C)[C@H](N)C(=O)N[C@H](C(=O)N[C@@H](CC(C)C)C(=O)N[C@@H](CCCCN)C(=O)N[C@@H](C)C(=O)N[C@@H](CC(C)C)C(=O)N[C@@H](C)C(=O)N[C@@H](C)C(=O)N[C@@H](CC(C)C)C(=O)N[C@@H](C)C(=O)N[C@@H](CCCCN)C(=O)N[C@@H](CCCCN)C(=O)N[C@H](C(=O)N[C@@H](CC(C)C)C(N)=O)[C@@H](C)CC)[C@@H](C)CC [I2]
PBMC
  Average (percentage cell inhibition), Mastoparan PBMC: 42.1735%
MDA-MB-231 cells
  Average (percentage cell inhibition), Dmastoparan MDA-MB231 12.5uM: 82.9517%

## CC[C@H](C)[C@H](N)C(=O)N[C@@H](CC(N)=O)C(=O)N[C@H](C(=O)N[C@@H](CCCCN)C(=O)N[C@@H](C)C(=O)N[C@@H](CC(C)C)C(=O)N[C@@H](C)C(=O)N[C@@H](C)C(=O)N[C@@H](CC(C)C)C(=O)N[C@@H](C)C(=O)N[C@@H](CCCCN)C(=O)N[C@@H](CCCCN)C(=O)N[C@H](C(=O)N[C@@H](CC(C)C)C(N)=O)[C@@H](C)CC)C(C)C [V3]
PBMC
  Average (percentage cell inhibition), Mastoparan PBMC: -4.825%
MDA-MB-231 cells
  Average (percentage cell inhibition), Dmastoparan MDA-MB231 12.5uM: 35.8976%

## CC[C@H](C)[C@H](N)C(=O)N[C@@H](CC(N)=O)C(=O)N[C@@H](CC(C)C)C(=O)N[C@@H](CCCCN)C(=O)N[C@@H](C)C(=O)N[C@@H](CC(C)C)C(=O)N[C@@H](C)C(=O)N[C@@H](C)C(=O)N[C@@H](CC(C)C)C(=O)N[C@@H](CO)C(=O)N[C@@H](CCCCN)C(=O)N[C@@H](CCCCN)C(=O)N[C@H](C(=O)N[C@@H](CC(C)C)C(N)=O)[C@@H](C)CC [S10]
PBMC
  Average (percentage cell inhibition), Mastoparan PBMC: 1.271%
MDA-MB-231 cells
  Average (percentage cell inhibition), Dmastoparan MDA-MB231 12.5uM: 30.5653%

## CC[C@H](C)[C@H](N)C(=O)N[C@@H](CC(N)=O)C(=O)N[C@@H](CC(C)C)C(=O)N[C@@H](CCCCN)C(=O)N[C@@H](CCCCN)C(=O)N[C@@H](CC(C)C)C(=O)N[C@@H](C)C(=O)N[C@@H](C)C(=O)N[C@@H](CC(C)C)C(=O)N[C@@H](C)C(=O)N[C@@H](CCCCN)C(=O)N[C@@H](CCCCN)C(=O)N[C@H](C(=O)N[C@@H](CC(C)C)C(N)=O)[C@@H](C)CC [K5]
PBMC
  Average (percentage cell inhibition), Mastoparan PBMC: 10.3023%
MDA-MB-231 cells
  Average (percentage cell inhibition), Dmastoparan MDA-MB231 12.5uM: 39.1552%

## CC[C@H](C)[C@H](N)C(=O)N[C@@H](CC(N)=O)C(=O)N[C@@H](CC(C)C)C(=O)N[C@@H](CCC(=O)O)C(=O)N[C@@H](C)C(=O)N[C@@H](CC(C)C)C(=O)N[C@@H](C)C(=O)N[C@@H](C)C(=O)N[C@@H](CC(C)C)C(=O)N[C@@H](C)C(=O)N[C@@H](CCCCN)C(=O)N[C@@H](CCCCN)C(=O)N[C@H](C(=O)N[C@@H](CC(C)C)C(N)=O)[C@@H](C)CC [E4]
PBMC
  Average (percentage cell inhibition), Mastoparan PBMC: 5.1636%
MDA-MB-231 cells
  Average (percentage cell inhibition), Dmastoparan MDA-MB231 12.5uM: 27.9326%

## CC[C@H](C)[C@H](N)C(=O)N[C@@H](CC(N)=O)C(=O)N[C@@H](CC(C)C)C(=O)N[C@@H](CCCCN)C(=O)N[C@@H](C)C(=O)N[C@@H](C)C(=O)N[C@@H](C)C(=O)N[C@@H](C)C(=O)N[C@@H](CC(C)C)C(=O)N[C@@H](C)C(=O)N[C@@H](CCCCN)C(=O)N[C@@H](CCCCN)C(=O)N[C@H](C(=O)N[C@@H](CC(C)C)C(N)=O)[C@@H](C)CC [A6]
PBMC
  Average (percentage cell inhibition), Mastoparan PBMC: -1.6231%
MDA-MB-231 cells
  Average (percentage cell inhibition), Dmastoparan MDA-MB231 12.5uM: 16.1268%

## CC[C@H](C)[C@H](N)C(=O)N1CCC[C@H]1C(=O)N[C@@H](CC(C)C)C(=O)N[C@@H](CCCCN)C(=O)N[C@@H](C)C(=O)N[C@@H](CC(C)C)C(=O)N[C@@H](C)C(=O)N[C@@H](C)C(=O)N[C@@H](CC(C)C)C(=O)N[C@@H](C)C(=O)N[C@@H](CCCCN)C(=O)N[C@@H](CCCCN)C(=O)N[C@H](C(=O)N[C@@H](CC(C)C)C(N)=O)[C@@H](C)CC [P2]
PBMC
  Average (percentage cell inhibition), Mastoparan PBMC: -4.49%
MDA-MB-231 cells
  Average (percentage cell inhibition), Dmastoparan MDA-MB231 12.5uM: 36.9174%

## CC[C@H](C)[C@H](N)C(=O)N[C@@H](CC(N)=O)C(=O)N[C@@H](CC(C)C)C(=O)N[C@@H](CCCCN)C(=O)N[C@@H](C)C(=O)N[C@@H](CC(C)C)C(=O)N[C@@H](C)C(=O)N[C@@H](C)C(=O)N1CCC[C@H]1C(=O)N[C@@H](C)C(=O)N[C@@H](CCCCN)C(=O)N[C@@H](CCCCN)C(=O)N[C@H](C(=O)N[C@@H](CC(C)C)C(N)=O)[C@@H](C)CC [P9]
PBMC
  Average (percentage cell inhibition), Mastoparan PBMC: -6.87%
MDA-MB-231 cells
  Average (percentage cell inhibition), Dmastoparan MDA-MB231 12.5uM: 35.5446%

## CC[C@H](C)[C@H](N)C(=O)N[C@@H](CC(N)=O)C(=O)N[C@@H](CC(C)C)C(=O)N[C@@H](CCCCN)C(=O)N[C@@H](C)C(=O)N[C@@H](CC(C)C)C(=O)N[C@@H](C)C(=O)N[C@@H](CCCNC(=N)N)C(=O)N[C@@H](CC(C)C)C(=O)N[C@@H](C)C(=O)N[C@@H](CCCCN)C(=O)N[C@@H](CCCCN)C(=O)N[C@H](C(=O)N[C@@H](CC(C)C)C(N)=O)[C@@H](C)CC [R8]
PBMC
  Average (percentage cell inhibition), Mastoparan PBMC: 4.899%
MDA-MB-231 cells
  Average (percentage cell inhibition), Dmastoparan MDA-MB231 12.5uM: 42.355%

## CC[C@H](C)[C@H](NC(=O)[C@H](CCCCN)NC(=O)[C@H](CCCCN)NC(=O)[C@H](C)NC(=O)[C@H](CC(C)C)NC(=O)[C@H](C)NC(=O)[C@H](C)NC(=O)[C@H](CC(C)C)NC(=O)[C@H](C)NC(=O)[C@H](CCCCN)NC(=O)[C@H](CC(C)C)NC(=O)[C@H](CC(N)=O)NC(=O)[C@@H](N)[C@@H](C)O)C(=O)N[C@@H](CC(C)C)C(N)=O [T1]
PBMC
  Average (percentage cell inhibition), Mastoparan PBMC: 14.7113%
MDA-MB-231 cells
  Average (percentage cell inhibition), Dmastoparan MDA-MB231 12.5uM: 37.2219%

## CC[C@H](C)[C@H](N)C(=O)N[C@@H](CC(N)=O)C(=O)N[C@@H](CC(C)C)C(=O)N[C@@H](CCCCN)C(=O)N[C@@H](C)C(=O)N[C@@H](CC(C)C)C(=O)N[C@@H](C)C(=O)N[C@@H](C)C(=O)N[C@@H](CC(C)C)C(=O)N[C@@H](C)C(=O)N[C@@H](CCCCN)C(=O)N[C@@H](CCCCN)C(=O)N[C@H](C(=O)N[C@H](C(N)=O)[C@@H](C)O)[C@@H](C)CC [T14]
PBMC
  Average (percentage cell inhibition), Mastoparan PBMC: 6.663%
MDA-MB-231 cells
  Average (percentage cell inhibition), Dmastoparan MDA-MB231 12.5uM: 36.2451%

## CC[C@H](C)[C@H](N)C(=O)N[C@@H](CC(N)=O)C(=O)N[C@@H](CC(C)C)C(=O)N[C@@H](CCCCN)C(=O)N[C@@H](C)C(=O)N[C@@H](CC(C)C)C(=O)N[C@@H](C)C(=O)N[C@@H](C)C(=O)N[C@@H](CC(C)C)C(=O)N[C@@H](C)C(=O)N[C@@H](CCCCN)C(=O)N[C@@H](CCCNC(=N)N)C(=O)N[C@H](C(=O)N[C@@H](CC(C)C)C(N)=O)[C@@H](C)CC [R12]
PBMC
  Average (percentage cell inhibition), Mastoparan PBMC: -4.156%
MDA-MB-231 cells
  Average (percentage cell inhibition), Dmastoparan MDA-MB231 12.5uM: 35.2659%

## CC[C@H](C)[C@H](N)C(=O)N[C@@H](CC(N)=O)C(=O)N1CCC[C@H]1C(=O)N[C@@H](CCCCN)C(=O)N[C@@H](C)C(=O)N[C@@H](CC(C)C)C(=O)N[C@@H](C)C(=O)N[C@@H](C)C(=O)N[C@@H](CC(C)C)C(=O)N[C@@H](C)C(=O)N[C@@H](CCCCN)C(=O)N[C@@H](CCCCN)C(=O)N[C@H](C(=O)N[C@@H](CC(C)C)C(N)=O)[C@@H](C)CC [P3]
PBMC
  Average (percentage cell inhibition), Mastoparan PBMC: -5.207%
MDA-MB-231 cells
  Average (percentage cell inhibition), Dmastoparan MDA-MB231 12.5uM: 17.7289%

## CC[C@H](C)[C@H](N)C(=O)N[C@@H](CC(N)=O)C(=O)N[C@@H](CC(C)C)C(=O)N[C@@H](CCCCN)C(=O)N[C@@H](C)C(=O)N[C@@H](CC(C)C)C(=O)N[C@@H](C)C(=O)N[C@@H](C)C(=O)N[C@@H](CC(C)C)C(=O)N[C@@H](C)C(=O)N[C@@H](CCCCN)C(=O)N[C@@H](CO)C(=O)N[C@H](C(=O)N[C@@H](CC(C)C)C(N)=O)[C@@H](C)CC [S12]
PBMC
  Average (percentage cell inhibition), Mastoparan PBMC: 1.96%
MDA-MB-231 cells
  Average (percentage cell inhibition), Dmastoparan MDA-MB231 12.5uM: 38.966%

## CC[C@H](C)[C@H](N)C(=O)N[C@@H](CC(N)=O)C(=O)N[C@@H](CC(C)C)C(=O)N[C@@H](CCCCN)C(=O)N[C@@H](C)C(=O)N[C@@H](CC(C)C)C(=O)N[C@@H](C)C(=O)N[C@@H](C)C(=O)N[C@@H](CC(C)C)C(=O)N[C@@H](C)C(=O)N[C@@H](CCCCN)C(=O)N[C@@H](CCCCN)C(=O)N[C@@H](CO)C(=O)N[C@@H](CC(C)C)C(N)=O [S13]
PBMC
  Average (percentage cell inhibition), Mastoparan PBMC: -6.27%
MDA-MB-231 cells
  Average (percentage cell inhibition), Dmastoparan MDA-MB231 12.5uM: 39.6113%

## CC[C@H](C)[C@H](N)C(=O)N[C@@H](CC(N)=O)C(=O)N[C@@H](CC(C)C)C(=O)N[C@@H](CCCCN)C(=O)N[C@H](C(=O)N[C@@H](CC(C)C)C(=O)N[C@@H](C)C(=O)N[C@@H](C)C(=O)N[C@@H](CC(C)C)C(=O)N[C@@H](C)C(=O)N[C@@H](CCCCN)C(=O)N[C@@H](CCCCN)C(=O)N[C@H](C(=O)N[C@@H](CC(C)C)C(N)=O)[C@@H](C)CC)[C@@H](C)CC [I5]
PBMC
  Average (percentage cell inhibition), Mastoparan PBMC: 29.3206%
MDA-MB-231 cells
  Average (percentage cell inhibition), Dmastoparan MDA-MB231 12.5uM: 71.3869%
